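A five-concentration, 48-hour dose response in 96-well plates underlies each endpoint, interpolated linearly between surrounding concentrations. Here, GI50 denotes the concentration required for 50% inhibition of growth.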 Active and inactive are the calls of the source. No stated cut-off is given here; in the data, active = GI50 up to about 1.1 µM and inactive = higher. Bounds are passed on as bounds.

Test in all cases: NCI anticancer screen, dose series, 48 h
The subject of test [1] is A498.
For test [2], the system named is CCRF-CEM.
In test [3] the test system is HOP-62.
Test [4] concerns HT-29.
Test [5] concerns K562.
The test system of test [6] is Malme-3M.
In test [7] the test system is NCI-H23.
In test [8] the test system is NCI-H460.
Test [9] deals with NCI-H522.
Test [10] relates to OVCAR-5.
For test [11], the system named is SF-539.
Test [12] has as its system SW-620.
The test system of test [13] is U-251.
For test [14], the system named is UACC-257.
Test [15] relates to ACHN.
In test [16] the test system is 786-0.

For `CCC1=CC2CN3CCc4c([nH]c5ccccc45)C(C(=O)OC)(C2)C13` (stereo not given), the GI50 was 48.1 µM (inactive) in test [1]; 50.5 µM (inactive) in test [2]; 43.6 µM (inactive) in test [3]; 22.7 µM (inactive) in test [4]; 39.2 µM (inactive) in test [5]; 50.4 µM (inactive) in test [6]. Moreover, the GI50 in [7] is 45.6 µM (inactive); in test [8] it was 52.6 µM (inactive); in test [9], 45.7 µM (inactive); in test [10] it was 7.4 µM (inactive); in test [11], 50.9 µM (inactive); in test [12], 41.9 µM (inactive). In addition, the GI50 in test [13] is 7.26 µM (inactive); in [14], 54.8 µM (inactive).
For the compound `CC1=C(Cl)C=CP(=O)(Oc2ccccc2)C1` (stereo not given), the GI50 in test [15] was > 100 µM (inactive); in test [2], > 10 µM (inactive); in test [3], > 100 µM (inactive); in [5] it was > 10 µM (inactive); in test [6] it was 44.5 µM (inactive); in test [7], 45.7 µM (inactive). For the same compound, the GI50 in test [8] is 32.6 µM (inactive); in test [9], 15.6 µM (inactive); in test [10], > 100 µM (inactive); in test [12], 39.4 µM (inactive); in test [13], > 100 µM (inactive); in [14], 71.6 µM (inactive).
Turning to `C[C@]12CCc3nonc3C1CC[C@@H]1C2CC[C@]2(C)C(=O)CCC12` (stereo not given in full), the GI50 was > 100 µM (inactive) in [16]; 22.9 µM (inactive) in test [1]; 74 µM (inactive) in test [15]; 24.1 µM (inactive) in test [2]; > 100 µM (inactive) in test [3]; 17.2 µM (inactive) in test [4]. In addition, the GI50 was 33.7 µM (inactive) in test [5]; 24.9 µM (inactive) in [6]; 30.8 µM (inactive) in [7]; > 100 µM (inactive) in [8]; 19.8 µM (inactive) in [9]; > 100 µM (inactive) in [10]. Moreover, the GI50 in test [11] is 20.9 µM (inactive); in test [12] it was 40.1 µM (inactive); in [13], 48.6 µM (inactive); in test [14], > 10 µM (inactive).
With `COC(=O)C(=O)C(C(=O)C(=O)Nc1ccc([N+](=O)[O-])cc1[N+](=O)[O-])c1nc2ccc([N+](=O)[O-])cc2nc1O` (stereo not given), the GI50 in test [16] is > 100 µM (inactive); in test [1], 76.9 µM (inactive); in test [15] it was > 100 µM (inactive); in test [2], > 100 µM (inactive); in test [3] it was > 100 µM (inactive); in [4] it was > 100 µM (inactive). Besides, the GI50 in test [5] is > 100 µM (inactive); in [6] it was > 100 µM (inactive); in test [7] it was > 100 µM (inactive); in test [8] it was > 100 µM (inactive); in [9], 50.1 µM (inactive); in test [10] it was > 100 µM (inactive). In addition, the GI50 in [12], in [13] and in [14] was > 100 µM (inactive) each time.
Consider `C=CCN1C(=O)NC(=O)/C(=C/c2c3ccccc3cc3ccccc23)C1=O`, for which the GI50 is 26.3 µM (inactive) in test [2]; 17.3 µM (inactive) in test [3]; 20.7 µM (inactive) in [4]; 20.8 µM (inactive) in [5]; 18.6 µM (inactive) in test [6]; > 10 µM (inactive) in test [7]. Also, the GI50 in [8] was 19.1 µM (inactive); in test [9], 20.2 µM (inactive); in test [10], 20.5 µM (inactive); in [11] it was 16.7 µM (inactive); in test [12], 35.7 µM (inactive); in test [13] it was 16.7 µM (inactive).
With `CN1Cc2ccccc2C2(COc3ccccc3C2=O)C1` (stereo not given), the GI50 in test [15] is > 100 µM (inactive); in test [2] it was 74.3 µM (inactive); in [3], > 100 µM (inactive); in test [4] it was 48 µM (inactive); in test [5], 75.2 µM (inactive); in test [6], > 100 µM (inactive). Further, the GI50 is > 100 µM (inactive) in test [7]; > 100 µM (inactive) in test [8]; 98.2 µM (inactive) in test [9]; > 100 µM (inactive) in test [10]; > 100 µM (inactive) in [11]; > 100 µM (inactive) in test [12]. Besides, the GI50 in test [13] was > 100 µM (inactive); in test [14], 62.7 µM (inactive).
Consider `CC(C)(C)C(=O)OCC1CCC(n2cnc3c(=O)[nH]c(N)nc32)O1` (stereo not given), for which the GI50 in test [16], in [1], in [15], in test [2], in test [3] and in test [4] was > 100 µM (inactive) throughout. For the same compound, the GI50 in test [5], in test [6], in test [7], in [8], in test [10] and in test [11] was > 100 µM (inactive) each time. Besides, the GI50 in test [12], in test [13] and in test [14] was > 100 µM (inactive) each time.
Consider `COc1ccc(Sc2ccccc2[N+](=O)[O-])cc1`, for which the GI50 is 50.7 µM (inactive) in test [1]; 22.8 µM (inactive) in test [2]; 16.6 µM (inactive) in test [3]; 4.62 µM (inactive) in test [4]; 3.32 µM (inactive) in [5]; 13 µM (inactive) in test [6]. In addition, the GI50 in test [7] was 31.2 µM (inactive); in [8] it was 16.8 µM (inactive); in test [10], > 100 µM (inactive); in test [11] it was 26 µM (inactive); in test [12], 3.65 µM (inactive); in [13], 10.4 µM (inactive). Also, the GI50 in [14] was 36.9 µM (inactive).
As to `COc1cccc2c1C(=O)c1c(O)c3c(c(O)c1C2=O)C[C@](O)(C(=O)CO)CC3OC1CC(N)C(OC2CCCCO2)C(C)O1` (stereo not given in full), the GI50 in [1] was < 0.0411 µM (active); in test [2], < 0.0375 µM (active); in [3], 0.212 µM (active); in test [4] it was 0.229 µM (active); in [5], 0.188 µM (active); in test [6], 0.0752 µM (active). Besides, the GI50 in test [7] is 0.051 µM (active); in [8], < 0.01 µM (active); in test [9], 0.356 µM (active); in test [10], 0.293 µM (active); in test [11], 0.123 µM (active); in test [12] it was 0.0598 µM (active). Moreover, the GI50 in test [13] is 0.0658 µM (active); in test [14] it was 0.995 µM (active).
Turning to `C/C(=N\NC(=O)C[N+](C)(C)C)c1sc(-c2cccnc2)nc1C`, the GI50 in test [16], in [15], in test [2], in test [3], in test [4] and in [5] was > 100 µM (inactive) each time. Also, the GI50 is > 100 µM (inactive) in [6]; > 100 µM (inactive) in test [7]; > 100 µM (inactive) in [8]; 42.7 µM (inactive) in [9]; > 100 µM (inactive) in test [10]; > 100 µM (inactive) in [11]. For the same compound, the GI50 in test [12], in test [13] and in test [14] was > 100 µM (inactive) each time.
`CCCCN(CCCC)C(=O)C(=O)C(C(=O)c1ccc(OC)cc1)c1ccc(OC)cc1` (stereo not given): the GI50 in test [16], in test [15], in test [2], in test [3], in [4] and in test [5] was > 100 µM (inactive) each time. The GI50 in test [6], in [7], in test [8], in test [10], in test [11] and in [12] was > 100 µM (inactive) in each case. The GI50 in [13] and in test [14] was > 100 µM (inactive) throughout.
On to `O=C(c1ccccc1)c1c(CC(O)c2ccncc2)n(C(=O)c2ccccc2)c2ccccc12` (stereo not given), for which the GI50 in test [16] is 17 µM (inactive); in test [15], 20.2 µM (inactive); in test [2], 25.1 µM (inactive); in [3], 16.4 µM (inactive); in test [4], 17.3 µM (inactive); in test [5] it was > 10 µM (inactive). Also, the GI50 in [6] was 18 µM (inactive); in test [7] it was 16 µM (inactive); in [8], 18.7 µM (inactive); in test [9], 13.2 µM (inactive); in test [10] it was 15.8 µM (inactive); in test [11], 17.9 µM (inactive). The GI50 was 18.7 µM (inactive) in [12], 17.7 µM (inactive) in [13] and 17.5 µM (inactive) in test [14].
Consider `CN(C(=O)c1ccco1)C(=S)N1CCN(c2ccccn2)CC1`, for which the GI50 in [16], in [15], in test [2], in [3], in [4] and in [5] was > 100 µM (inactive) throughout. Besides, the GI50 in [6], in [7], in test [8], in test [9], in test [10] and in [11] was > 100 µM (inactive) throughout. In addition, the GI50 in test [12], in test [13] and in [14] was > 100 µM (inactive) in each case.
Regarding `NC(=O)c1ncn(Cc2ccccc2)c1CNC(N)=S`, the GI50 in test [16], in test [15], in test [2], in test [4], in test [5] and in [7] was > 100 µM (inactive) each time. The GI50 in test [8], in test [10], in test [11], in test [12] and in test [13] was > 100 µM (inactive) throughout.

For the origin of these results see ChEMBL document CHEMBL1201862, “PubChem BioAssay data set” (2004).
